This passage reports concentration and IC50 results from ChEMBL document CHEMBL1156311, “Discovery of sulfonamide-pyrazole gamma-secretase inhibitors” (Bioorg Med Chem Lett, 2010).

Bounds are passed on as bounds.

A word on the IC50: it is the point on the concentration scale where inhibition reaches its midpoint. High values mean a need for much substance, low ones inhibition by little substance.

The first series can be described thus: Drug level in FVB mouse cerebral cortex at 100 mg/kg, po after 3 hrs. The format is ADME, organism-based. More on the design: dose 100 mg/kg, route oral. The following applies: read-out: Drug uptake.
In the case of `O=S(=O)(c1ccc(Cl)cc1)N1C2CCCC1c1cn[nH]c1C2` (single isomer, unassigned; (+)), the concentration at 3 h stood at 86 nM.

A further series is described as follows: Drug level in FVB mouse plasma at 100 mg/kg, po after 3 hrs. In kind it is ADME, organism-based. More on the design: dose 100 mg/kg, route oral.
Conditions: not given
As for `O=S(=O)(c1ccc(Cl)cc1)N1C2CCCC1c1cn[nH]c1C2` (single isomer, unassigned; (+)), the concentration at 3 h is 194 nM.

A further series in a line: Inhibition of gamma-secretase.
Conditions: not given
The compound `O=C1NCCCC[C@H]1N(Cc1ccc(Br)cc1)S(=O)(=O)c1ccc(Cl)cc1` yielded an IC50 of 25 nM. In turn, `O=S(=O)(c1ccc(Cl)cc1)N1C2CCCC1c1c(C(F)F)n[nH]c1C2` (stereo not drawn) displayed an IC50 of 85 nM. Compared with the last compound, the IC50 is about 3.4-fold higher. In turn, `Cc1ccc(S(=O)(=O)C(=O)NC2CC3CCCC(C2)N3S(=O)(=O)c2ccc(Cl)cc2)cc1` (racemic) registered an IC50 of 8000 nM.

`CNC1CC2CCCC(C1)N2S(=O)(=O)c1ccc(Cl)cc1` (racemic) came in with an IC50 above 10000 nM.

`N[C@H]1C[C@H]2CCC[C@@H](C1)N2S(=O)(=O)c1ccc(Cl)cc1` had a half-maximal inhibitory concentration (IC50) above 10000 nM.

In turn, `O=S(=O)(c1ccc(Cl)cc1)N1C2CCCC1CC(=NO)C2` (racemic) came in with a concentration for half-maximal inhibition (IC50) of 3300 nM. As to `CC(=O)NC1CC2CCCC(C1)N2S(=O)(=O)c1ccc(Cl)cc1` (racemic), the IC50 was above 10000 nM. On the same count and under the same terms, for `O=S(=O)(c1ccc(Cl)cc1)N1C2CCCC1c1cncnc1C2` (stereo not drawn) the value was 4700 nM. `O=S(=O)(c1ccc(Cl)cc1)N1C2CCCC1c1cn[nH]c1C2` (stereo not drawn) registered a concentration for half-maximal inhibition (IC50) of 4 nM.

In turn, `O=S(=O)(c1ccc(Cl)cc1)N1C2CCCC1CCC2` yielded an IC50 of 1300 nM. This IC50 lies about 320-fold higher than the previous one. For `COc1ncc2c(n1)CC1CCCC2N1S(=O)(=O)c1ccc(Cl)cc1` (stereo not drawn), the IC50 amounted to 9000 nM. Compared with the last compound, the IC50 is about 6.9-fold higher.

`O=C1c2[nH]ncc2C2CCCC1N2S(=O)(=O)c1ccc(Cl)cc1` (stereo not drawn) returned an IC50 of 8 nM. The compound `O=S(=O)(c1ccc(Cl)cc1)N1C2CCCC1c1c(C(F)(F)F)n[nH]c1C2` (stereo not drawn) yielded an IC50 of 70 nM. Against the preceding compound, the IC50 is about 8.8-fold higher. The same measure, in the same setting: for `O=S(=O)(c1ccc(Cl)cc1)N1[C@@H]2CCC[C@H]1C[C@@H](O)C2` (stereo in doubt; 8a) the value was 3000 nM; for `CC(=O)Nc1n[nH]c2c1C1CCCC(C2)N1S(=O)(=O)c1ccc(Cl)cc1` (stereo not drawn), 70 nM; for `O=S(=O)(c1ccc(Cl)cc1)N1C2CCCC1c1cnc(O)nc1C2` (stereo not drawn), above 10000 nM. The same measure, in the same setting: for `CSc1n[nH]c2c1C1CCCC(C2)N1S(=O)(=O)c1ccc(Cl)cc1` (stereo not drawn) the value was 390 nM.

For `CSc1ncc2c(n1)CC1CCCC2N1S(=O)(=O)c1ccc(Cl)cc1` (stereo not drawn), the concentration for half-maximal inhibition (IC50) is above 10000 nM. Still for that read-out and setting: for `Cn1ncc2c1CC1CCCC2N1S(=O)(=O)c1ccc(Cl)cc1` (stereo not drawn) the value was above 10000 nM; for `CN(C)c1n[nH]c2c1C1CCCC(C2)N1S(=O)(=O)c1ccc(Cl)cc1` (stereo not drawn), above 10000 nM; for `CN1CCCC[C@@H](N(Cc2ccc(Br)cc2)S(=O)(=O)c2ccc(Cl)cc2)C1=O`, 1700 nM.

Regarding `Cc1n[nH]c2c1C1CCCC(C2)N1S(=O)(=O)c1ccc(Cl)cc1` (stereo not drawn), the IC50 is 65 nM. The compound `Nc1n[nH]c2c1C1CCCC(C2)N1S(=O)(=O)c1ccc(Cl)cc1` (stereo not drawn) came in with an IC50 of 105 nM.

For `Cn1cc2c(n1)CC1CCCC2N1S(=O)(=O)c1ccc(Cl)cc1` (stereo not drawn), the 50% inhibitory concentration (IC50) is above 10000 nM.

With `O=S(=O)(c1ccc(Cl)cc1)N1C2CCCC1C(F)(F)c1[nH]ncc12` (stereo not drawn), 3 nM corresponded to half-maximal inhibition (IC50). This lies in the single-digit nanomolar range. On the same count and under the same terms, the same measure for `O=S(=O)(c1ccc(Cl)cc1)N1[C@@H]2CCC[C@H]1C[C@@H](O)C2` (stereo in doubt; 8b): 600 nM; for `O=S(=O)(c1ccc(Cl)cc1)N1C2CCCC1c1cnoc1C2` (stereo not drawn): 3500 nM; for `C[C@@H]1CCC[C@H](C)N1S(=O)(=O)c1ccc(Cl)cc1`: 1700 nM. In turn, `Nc1ncc2c(n1)CC1CCCC2N1S(=O)(=O)c1ccc(Cl)cc1` (stereo not drawn) returned an IC50 of 5500 nM.

Compound `Nc1nc2c(s1)C1CCCC(C2)N1S(=O)(=O)c1ccc(Cl)cc1` (stereo not drawn) had a half-inhibitory concentration (IC50) above 10000 nM. The same measure, in the same setting: the same measure for `COc1cc(CN([C@@H]2CCCCNC2=O)S(=O)(=O)c2ccc(Cl)cc2)ccc1OCCc1scnc1C`: 650 nM.
